The record followed here is PubChem BioAssay (NCI).

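Growth conditions: 96-well plates. Treatment: test compound, 48 hours, 5 concentrations. Analysis: linear interpolation between bracketing concentrations; unreached endpoints set to highest concentration. Abbreviation: GI50, concentration required for 50% inhibition of growth. TGI: concentration producing complete growth inhibition.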 A value given as a limit tells only on which side of the number the result lay.

Test systems include HCT-116 colon; RXF 393 renal; RPMI-8226 leukemia; 786-0 renal; HS 578T breast; U251 CNS; NCI-H522 lung; SK-MEL-5 melanoma; EKVX NSCLC; OVCAR-5 ovarian.
Holding throughout (test): inhibition of tumour cell growth, NCI panel, 48 h

`O=C(Cc1csc2nc(-c3ccc(Br)cc3)cn12)N/N=C/c1ccccc1O`: the GI50 with HCT-116 colon is 3.21 µM; in the assay on RXF 393 renal it was 37.7 µM; with RPMI-8226 leukemia it was 2.83 µM; in the assay on 786-0 renal, 4.68 µM; in the assay with HS 578T breast, 13.4 µM; in the assay with U251 CNS, 3.67 µM. In addition, the GI50 in the assay with NCI-H522 lung is 5.27 µM; with SK-MEL-5 melanoma, 2.98 µM; with EKVX NSCLC, 3.93 µM; in the assay on OVCAR-5 ovarian, 5.51 µM. In addition, the TGI with HCT-116 colon was determined as 12.4 µM; with RXF 393 renal it was 62.5 µM; with RPMI-8226 leukemia, 20.7 µM; in the assay with 786-0 renal, 17.7 µM; with HS 578T breast it was 42.3 µM; with U251 CNS, 15.1 µM. The TGI came to 27.2 µM in the assay with NCI-H522 lung, 10.6 µM in the assay on SK-MEL-5 melanoma, 19.2 µM with EKVX NSCLC and 31.9 µM in the assay with OVCAR-5 ovarian.
Consider `CN(Cc1cnc2nc(N)nc(N)c2n1)c1c(Cl)cc(C(=O)NC(CCC(=O)O)C(=O)O)cc1Br` (stereo not given), for which the GI50 was less than 0.01 µM in the assay with HCT-116 colon; 0.345 µM in the assay with RXF 393 renal; less than 0.01 µM in the assay with RPMI-8226 leukemia; less than 0.01 µM with 786-0 renal; 17.8 µM in the assay on HS 578T breast; less than 0.0237 µM in the assay on U251 CNS. Besides, the GI50 is 0.0391 µM in the assay with NCI-H522 lung, 0.0313 µM in the assay on SK-MEL-5 melanoma, less than 0.0282 µM with EKVX NSCLC and 0.127 µM in the assay with OVCAR-5 ovarian. The TGI in the assay on HCT-116 colon, in the assay with RXF 393 renal, in the assay on RPMI-8226 leukemia, in the assay with 786-0 renal, in the assay with HS 578T breast and with U251 CNS was more than 100 µM in each case. Moreover, the TGI in the assay on NCI-H522 lung, in the assay on SK-MEL-5 melanoma, in the assay with EKVX NSCLC and in the assay with OVCAR-5 ovarian was more than 100 µM each time.
With `Cc1nc2sc(C(=O)Nc3cccc(Cl)c3)c(N)c2cc1C(O)c1ccccc1` (stereo not given), the GI50 is 0.426 µM with HCT-116 colon; 0.722 µM in the assay on RXF 393 renal; 0.848 µM in the assay with RPMI-8226 leukemia; 2.47 µM with 786-0 renal; 0.351 µM with HS 578T breast; 0.584 µM with U251 CNS. Further, the GI50 with NCI-H522 lung was 1.15 µM; with SK-MEL-5 melanoma, 0.622 µM; in the assay on EKVX NSCLC, 3.39 µM; in the assay on OVCAR-5 ovarian, 2.41 µM. For the same compound, the TGI in the assay with HCT-116 colon was more than 100 µM; in the assay with RXF 393 renal it was 11.5 µM; with RPMI-8226 leukemia, more than 100 µM; in the assay with 786-0 renal, 20.7 µM; in the assay on HS 578T breast, 4.89 µM; in the assay with U251 CNS it was more than 100 µM. In addition, the TGI turned out to be 18.3 µM in the assay with NCI-H522 lung, 2.2 µM in the assay on SK-MEL-5 melanoma, 26.1 µM in the assay with EKVX NSCLC and 18.1 µM in the assay with OVCAR-5 ovarian.
As for `CN1CCC(C(=O)Nc2n[nH]c3nnc(-c4ccccc4)cc23)CC1`, the GI50 with HCT-116 colon is more than 23.6 µM; with RXF 393 renal, 12.3 µM; with RPMI-8226 leukemia, more than 25 µM; in the assay with 786-0 renal, more than 25 µM; in the assay with HS 578T breast, 16.5 µM; in the assay with U251 CNS it was more than 25 µM. For the same compound, the GI50 in the assay on NCI-H522 lung is more than 25 µM; with SK-MEL-5 melanoma, 14.6 µM; in the assay on EKVX NSCLC it was more than 25 µM; in the assay with OVCAR-5 ovarian it was more than 25 µM. For the same compound, the TGI with HCT-116 colon, with RXF 393 renal, with RPMI-8226 leukemia, in the assay on 786-0 renal, in the assay on HS 578T breast and with U251 CNS was more than 25 µM each time. Besides, the TGI in the assay on NCI-H522 lung, in the assay on SK-MEL-5 melanoma, with EKVX NSCLC and in the assay with OVCAR-5 ovarian was more than 25 µM each time.
For `COc1cc2c(cc1OC)C(Sc1ccc(Cl)cc1)c1c(nc(N)c(C#N)c1N)O2` (stereo not given), the GI50 with HCT-116 colon was 1.96 µM; in the assay on RXF 393 renal, 1.39 µM; in the assay with RPMI-8226 leukemia it was 1.42 µM; in the assay with 786-0 renal, 1.37 µM; with HS 578T breast it was 1.98 µM; in the assay with U251 CNS it was 0.916 µM. For the same compound, the GI50 in the assay on NCI-H522 lung was 1.29 µM; in the assay on SK-MEL-5 melanoma, 1.39 µM; with EKVX NSCLC, 1.57 µM; in the assay on OVCAR-5 ovarian, 1.89 µM. In addition, the TGI in the assay on HCT-116 colon turned out to be 3.46 µM; in the assay on RXF 393 renal, 2.77 µM; in the assay on RPMI-8226 leukemia, 4.8 µM; with 786-0 renal, 2.7 µM; in the assay on HS 578T breast, 6.43 µM; in the assay with U251 CNS it was 2.14 µM. Also, the TGI worked out at 2.64 µM in the assay with NCI-H522 lung, 2.71 µM in the assay with SK-MEL-5 melanoma, 3.02 µM in the assay with EKVX NSCLC and 3.88 µM in the assay on OVCAR-5 ovarian.
On to `O=C([CH-]C(=O)c1ccccc1)c1ccccc1.[CH2-]C.[CH2-]C.[Tl+3]`, for which the GI50 in the assay with HCT-116 colon was 9.72 µM; in the assay on RXF 393 renal, 16.5 µM; in the assay with RPMI-8226 leukemia, 10.4 µM; with 786-0 renal it was 19.2 µM; in the assay on HS 578T breast, 31.7 µM; in the assay on U251 CNS, 11.8 µM. Moreover, the GI50 with NCI-H522 lung was 21.5 µM; in the assay with SK-MEL-5 melanoma, 16.5 µM; with EKVX NSCLC it was 19.7 µM; in the assay with OVCAR-5 ovarian it was 40.5 µM. For the same compound, the TGI in the assay with HCT-116 colon is 34.2 µM; in the assay on RXF 393 renal, 88.7 µM; in the assay with RPMI-8226 leukemia it was more than 66 µM; in the assay on 786-0 renal, more than 100 µM; in the assay with HS 578T breast, more than 100 µM; with U251 CNS, more than 100 µM. Besides, the TGI with NCI-H522 lung is more than 85.2 µM; in the assay with SK-MEL-5 melanoma it was 50.1 µM; in the assay with EKVX NSCLC, 80.1 µM; in the assay on OVCAR-5 ovarian, more than 100 µM.
In the case of `NCC[PH+](c1ccccc1)c1ccccc1.NCC[PH+](c1ccccc1)c1ccccc1.[Cl-].[Pt+4]`, the GI50 with HCT-116 colon was 46.1 µM; in the assay with RXF 393 renal, more than 100 µM; in the assay on RPMI-8226 leukemia it was 14.7 µM; with 786-0 renal, more than 100 µM; in the assay with HS 578T breast, 99.6 µM; in the assay with U251 CNS, 39.3 µM. In addition, the GI50 with NCI-H522 lung was more than 87.1 µM; with SK-MEL-5 melanoma it was more than 100 µM; in the assay on EKVX NSCLC it was more than 100 µM; with OVCAR-5 ovarian, more than 100 µM. The TGI in the assay on HCT-116 colon was more than 100 µM; with RXF 393 renal, more than 100 µM; in the assay on RPMI-8226 leukemia, more than 65.2 µM; in the assay on 786-0 renal, more than 100 µM; in the assay with HS 578T breast it was more than 100 µM; with U251 CNS it was more than 100 µM. The TGI in the assay with NCI-H522 lung, with SK-MEL-5 melanoma, in the assay with EKVX NSCLC and in the assay with OVCAR-5 ovarian was more than 100 µM each time.
